Source: paper PMC6009867, “Microwave-assisted synthesis and bioevaluation of new sulfonamides” (Journal of Enzyme Inhibition and Medicinal Chemistry, 2017)

Columns and labels:
[1] = Cytotoxicity assay (MTT), HGF cells; format: cell-based; settings: human, gingival fibroblasts (HGF), normal oral cells
Protocol: (§1) The cytotoxicity of the compounds were assayed toward human oral squamous cell carcinoma cell lines derived from gingiva tissue (CA9–22) and tongue (HSC-2, HSC-3, HSC-4), and human normal oral cells (gingival fibroblasts, HGF; periodontal ligament fibroblasts, HPLF; pulp cells, HPC) with some minor modifications[16]^,[17]^,[26]^,[30–33]. In brief, cells were cultured in DMEM supplemented with 10% fetal bovine serum (FBS). Cells (2.5 × 10^3 cells/well) were inoculated and incubated for 48 h to achieve complete adherence. Near confluent cells were incubated for a further 48 h in the fresh culture medium containing each test compound (3.12, 6.25, 12.5, 25, 50, 100, 200, 400 μM) or 5-FU (positive control) (7.8, 15.6, 31.2, 62.5, 125, 250, 500, 1000 μM). The viable cell numbers were determined by the MTT method. Cytotoxicity induced by DMSO (0.0078, 0.0156, 0.03125, 0.0625, 0.125, 0.25, 0.5 or 1%) was subtracted from each well. The CC50 values were determined from the dose-response curves. The tumor selectivity (TS) was calculated by the following equation: TS = mean CC50 against normal cells/mean CC50 against cancer cells [shown as (D/B) or (C/A) in Table 1]. A potency selectivity expression (PSE) was calculated by multiplying the reciprocal of average CC50 values toward cancer cell lines and the average SI values toward these cell lines and expressed as a percentage [PSE = (D/B^2) × 100].

[2] = tested on: Ca9-22 (human oral squamous cell carcinoma, gingiva); test: Cytotoxicity assay (MTT), Ca9-22 cells; format: cell-based; settings: for TS (C/A): CC50 HGF / CC50 Ca9-22; for CC50: Homo sapiens, Ca9-22, 48 h, MTT, triplicate wells; for SI Ca9-22: average CC50 of nonmalignant cells / CC50 toward Ca9-22; for times of potency versus 5-FU toward Ca9-22: CC50 ratio to reference 5-FU
Protocol: as §1

[3] = tested on: HSC-2 (human oral squamous cell carcinoma, tongue); test: Cytotoxicity assay (MTT), HSC-2 cells; format: cell-based; settings: for CC50: Homo sapiens, HSC-2, 48 h, MTT; for SI HSC-2: average CC50 of nonmalignant cells / CC50 toward HSC-2; for times of potency versus 5-FU toward HSC-2: CC50 ratio to reference 5-FU
Protocol: as §1

[4] = Cytotoxicity assay (MTT), HPC cells; format: cell-based; settings: human, pulp cells (HPC), normal oral cells
Protocol: as §1

[5] = tested on: HSC-3 (human oral squamous cell carcinoma, tongue); test: Cytotoxicity assay (MTT), HSC-3 cells; format: cell-based; settings: for CC50: Homo sapiens, HSC-3, 48 h, MTT; for SI HSC-3: average CC50 of nonmalignant cells / CC50 toward HSC-3
Protocol: as §1

[6] = Cytotoxicity assay (MTT), mean over three normal oral cells; format: cell-based; settings: human; mean of HGF, HPLF, HPC; read-out: (D) Mean CC50, human normal oral cells
Protocol: as §1

[7] = tested on: HSC-4 (human oral squamous cell carcinoma, tongue); test: Cytotoxicity assay (MTT), HSC-4 cells; format: cell-based; settings: for CC50: Homo sapiens, HSC-4, 48 h, MTT; for SI HSC-4: average CC50 of nonmalignant cells / CC50 toward HSC-4
Protocol: as §1

[8] = tested on: Human oral squamous cell carcinoma cells; test: Cytotoxicity assay (MTT), mean over four OSCC cell lines; format: cell-based; settings: for CC50: Homo sapiens, mean of Ca9-22, HSC-2, HSC-3, HSC-4, read-out: (B) Mean CC50, human oral squamous cell carcinoma cells; for TS (D/B): mean CC50 normal cells / mean CC50 OSCC cells; for PSE (D/B^2) × 100: potency selectivity expression, expressed as a percentage
Protocol: as §1

[9] = Cytotoxicity assay (MTT), HPLF cells; format: cell-based; settings: human, periodontal ligament fibroblasts (HPLF), normal oral cells
Protocol: as §1

hCA I = hCA I (Homo sapiens, UniProt P00915); test: Carbonic anhydrase inhibition assay (esterase activity, 348 nm), hCA I; format: biochemical; settings: for Ki: Lineweaver-Burk, three concentrations; for IC50: from activity (%) versus compound plots; for times more potent than AZA toward hCA I: in terms of IC50 values
hCA II = hCA II (Homo sapiens, UniProt P00918); test: Carbonic anhydrase inhibition assay (esterase activity, 348 nm), hCA II; format: biochemical; settings: for Ki: Lineweaver-Burk, three concentrations; for IC50: from activity (%) versus compound plots; for times more potent than AZA toward hCA II: in terms of IC50 values

hCA I, sequence (P00915 whole entry): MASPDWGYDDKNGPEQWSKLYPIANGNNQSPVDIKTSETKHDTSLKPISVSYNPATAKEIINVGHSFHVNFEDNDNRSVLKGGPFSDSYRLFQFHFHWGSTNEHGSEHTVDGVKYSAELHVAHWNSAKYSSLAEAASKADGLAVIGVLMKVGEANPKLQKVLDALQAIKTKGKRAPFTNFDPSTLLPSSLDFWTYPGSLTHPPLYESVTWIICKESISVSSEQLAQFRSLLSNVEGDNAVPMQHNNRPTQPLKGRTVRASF

Row | Structure (SMILES) | Ki (hCA I) | IC50 (hCA I) | times more potent than AZA toward hCA I (hCA I) | Ki (hCA II) | CC50 at 48 h [1] | TS (C/A) [2] | CC50 [2] | SI Ca9-22 [2] | CC50 [3] | SI HSC-2 [3] | CC50 at 48 h [4] | CC50 [5] | SI HSC-3 [5] | CC50 at 48 h [6] | CC50 [7] | CC50 [8] | TS (D/B) [8] | PSE (D/B^2) × 100 [8] | CC50 at 48 h [9] | times of potency versus 5-FU toward Ca9-22 [2] | further results
1 | O=c1[nH]cc(F)c(=O)[nH]1 [Compound 5-FU, 5-Fluorouracil, reference compound] | – | – | – | – | > 1000 µM | >10.0 | 100 µM | >167.3 | 45.7 µM | >16.1 | > 1000 µM | 27.3 µM | >71.5 | > 736 µM | 17.3 µM | 47.6 µM | >15.5 | >32.6 | 208 µM | – | –
2 | NS(=O)(=O)c1ccc(N2N=C(c3ccccc3)CC2c2ccc(O)cc2)cc1 (stereo not drawn) [Compound 8, 4-[5-(4-Hydroxyphenyl)-3-phenyl-4,5-dihydro-1H-pyrazol-1-yl]benzenesulfonamide] | 0.00484 ± 0.00078 µM | 0.00481 µM | 39.5 | 0.00459 ± 0.00083 µM | 85 µM | 2.0 | 42 µM | 1.8 | 67 µM | 1.1 | 88.3 µM | 66.3 µM | 1.1 | 75.9 µM | 50.3 µM | 56.4 µM | 1.3 | 2.3 | 54.3 µM | 2.4 | IC50 (hCA II): 0.00495 µM; times more potent than AZA toward hCA II (hCA II): 40.3; SI HSC-4 [7]: 1.5
3 | Cc1ccc(C2=NN(c3ccc(S(N)(=O)=O)cc3)C(c3ccc(O)cc3)C2)cc1 (stereo not drawn) [Compound 9, 4-[5-(4-Hydroxyphenyl)-3-(4-methylphenyl)-4,5-dihydro-1H-pyrazol-1-yl]benzene sulfonamide] | 0.00459 ± 0.00125 µM | 0.00529 µM | 35.9 | 0.00748 ± 0.00252 µM | 43.7 µM | 1.7 | 25.7 µM | 1.7 | 33.3 µM | 1.3 | 49.7 µM | 39.7 µM | 1.1 | 44.2 µM | 31.7 µM | 32.6 µM | 1.4 | 4.2 | 39.3 µM | 3.9 | times of potency versus 5-FU toward HSC-2 [3]: 1.4; IC50 (hCA II): 0.00563 µM; times more potent than AZA toward hCA II (hCA II): 35.5; SI HSC-4 [7]: 1.4

Now from value to molecule, other results behind:

Row | Ki (hCA I) | IC50 (hCA I) | times more potent than AZA toward hCA I (hCA I) | Ki (hCA II) | Structure (SMILES) | CC50 at 48 h [1] | TS (C/A) [2] | CC50 [2] | SI Ca9-22 [2] | CC50 [3] | SI HSC-2 [3] | CC50 at 48 h [4] | CC50 [5] | SI HSC-3 [5] | CC50 at 48 h [6] | CC50 [7] | CC50 [8] | TS (D/B) [8] | PSE (D/B^2) × 100 [8] | CC50 at 48 h [9] | times of potency versus 5-FU toward Ca9-22 [2] | further results
4 | 0.00399 ± 0.0009 µM | 0.00484 µM | 39.3 | 0.00507 ± 0.00169 µM | COc1ccc(C2=NN(c3ccc(S(N)(=O)=O)cc3)C(c3ccc(O)cc3)C2)cc1 (stereo not drawn) [Compound 10, 4-[5-(4-Hydroxyphenyl)-3-(4-methoxyphenyl)-4,5-dihydro-1H-pyrazol-1-yl] benzenesulfonamide] | 47.3 µM | 1.3 | 37.7 µM | 1.3 | 65.3 µM | 0.8 | 61 µM | 47 µM | 1.1 | 50.8 µM | 40.7 µM | 47.7 µM | 1.1 | 2.2 | 44 µM | 2.7 | IC50 (hCA II): 0.00537 µM; times more potent than AZA toward hCA II (hCA II): 37.1; SI HSC-4 [7]: 1.2
5 | 0.0051 ± 0.00117 µM | 0.00568 µM | 33.5 | 0.00453 ± 0.00075 µM | NS(=O)(=O)c1ccc(N2N=C(c3ccc(F)cc3)CC2c2ccc(O)cc2)cc1 (stereo not drawn) [Compound 11, 4-[5-(4-Hydroxyphenyl)-3-(4-fluorophenyl)-4,5-dihydro-1H-pyrazol-1-yl] benzenesulfonamide] | 66.7 µM | 1.8 | 36.3 µM | 1.6 | 46.3 µM | 1.3 | 67.7 µM | 43.3 µM | 1.4 | 59.1 µM | 39.3 µM | 41.3 µM | 1.4 | 3.5 | 43 µM | 2.8 | times of potency versus 5-FU toward HSC-2 [3]: 1.0; IC50 (hCA II): 0.00572 µM; times more potent than AZA toward hCA II (hCA II): 34.9; SI HSC-4 [7]: 1.5
6 | 0.00449 ± 0.00067 µM | 0.00491 µM | 38.7 | 0.00406 ± 0.0006 µM | NS(=O)(=O)c1ccc(N2N=C(c3ccc(Cl)cc3)CC2c2ccc(O)cc2)cc1 (stereo not drawn) [Compound 12, 4-[5-(4-Hydroxyphenyl)-3-(4-chlorophenyl)-4,5-dihydro-1H-pyrazol-1-yl] benzenesulfonamide] | 44 µM | 2.0 | 22.3 µM | 2.0 | 39 µM | 1.1 | 50.7 µM | 38.3 µM | 1.2 | 44.3 µM | 31.3 µM | 32.8 µM | 1.4 | 4.1 | 38.3 µM | 4.5 | times of potency versus 5-FU toward HSC-2 [3]: 1.2; IC50 (hCA II): 0.00425 µM; times more potent than AZA toward hCA II (hCA II): 46.9; SI HSC-4 [7]: 1.4
7 | 0.00373 ± 0.00091 µM | 0.00422 µM | 45.1 | 0.00456 ± 0.00108 µM | NS(=O)(=O)c1ccc(N2N=C(c3ccc(Br)cc3)CC2c2ccc(O)cc2)cc1 (stereo not drawn) [Compound 13, 4-[5-(4-Hydroxyphenyl)-3-(4-bromophenyl)-4,5-dihydro-1H-pyrazol-1-yl] benzenesulfonamide] | 34.7 µM | 1.7 | 20.7 µM | 1.7 | 37.7 µM | 0.9 | 39.7 µM | 34.7 µM | 1.0 | 34.7 µM | 25.7 µM | 29.7 µM | 1.2 | 3.9 | 29.7 µM | 4.8 | times of potency versus 5-FU toward HSC-2 [3]: 1.2; IC50 (hCA II): 0.00465 µM; times more potent than AZA toward hCA II (hCA II): 42.9; SI HSC-4 [7]: 1.4
8 | 0.00417 ± 0.00093 µM | 0.00513 µM | 37.1 | 0.00385 ± 0.00057 µM | NS(=O)(=O)c1ccc(N2N=C(c3cccs3)CC2c2ccc(O)cc2)cc1 (stereo not drawn) [Compound 14, 4-[5–(4-Hydroxyphenyl)-3-(thiophen-2-yl)-4,5-dihydro-1H-pyrazol-1-yl] benzenesulfonamide] | 88.3 µM | 1.9 | 45.7 µM | 1.8 | 55 µM | 1.5 | 87.3 µM | 61.3 µM | 1.4 | 82.9 µM | 55.3 µM | 54.3 µM | 1.5 | 2.8 | 73 µM | 2.2 | IC50 (hCA II): 0.00545 µM; times more potent than AZA toward hCA II (hCA II): 36.6; SI HSC-4 [7]: 1.5
